We go through 25 molecules from US7504420B2, “Compounds which inhibit beta-secretase activity and methods of use” (CoMentis, Inc., priority 2005, dated 2009).

One test concerns the target memapsin 2 (Homo sapiens, UniProt P56817). As to the kind of experiment: Inhibition of memapsin 2 catalytic activity (Ki). Type of test: biochemical. The settings on record: memapsin 2, pH 4, 37° C.; read-out: M2K. On the procedure: Potency of compounds were determined by measurement of their inhibition of memapsin 2 catalytic activity toward a fluorescent substrate. […] Briefly, assays were performed at pH 4, 37° C., by pre-incubation of memapsin 2 enzyme with compound for 20 minutes. Activity measure was initiated by addition of a fluorogenic substrate FS-2 (Bachem Americas, Torrance, Calif.). Fluorescent signal increase over time was measured as a rate of hydrolysis of the peptide substrate. […]

For test [1], the system named is Aβ production in Chinese hamster ovary cells that over-express human APP695 with the London and Swedish mutations. The experiment in a line: Cellular Aβ IC50 determination (Aβ40 sandwich ELISA). The conditions noted are these: Cricetulus griseus, CHO, 24 h. A general note: In an ELISA, binding on a coated surface is turned into a signal by an enzyme label.
Procedure: The potency of compounds against memapsin 2 catalytic activity was determined in a cellular assay of Aβ production. […] Compounds are dissolved in DMSO to concentrations near 1 mM, and diluted into culture media to a final concentration near 4 μM (final 0.4% DMSO). Compounds were diluted serially and applied to cells in multi-well plates 48 h after seeding. Incubation was continued in 5% CO2 at 37 degrees C. for 24 h. Aliquots were removed and assayed for Aβ40 content using a sandwich ELISA (BioSource International). Amount of Aβ40 over the range of concentration of compounds, relative to control incubations, were fit to a 4-parameter IC50 model.
Setting [2] is: read-out: Cell, Aβ40, CHO cells over-expressing human APP695 (London and Swedish mutations), 24 h.

Structures are written as SMILES. Read-outs that look alike come from different tables or passages of the source.

memapsin 2, sequence (P56817 46-501): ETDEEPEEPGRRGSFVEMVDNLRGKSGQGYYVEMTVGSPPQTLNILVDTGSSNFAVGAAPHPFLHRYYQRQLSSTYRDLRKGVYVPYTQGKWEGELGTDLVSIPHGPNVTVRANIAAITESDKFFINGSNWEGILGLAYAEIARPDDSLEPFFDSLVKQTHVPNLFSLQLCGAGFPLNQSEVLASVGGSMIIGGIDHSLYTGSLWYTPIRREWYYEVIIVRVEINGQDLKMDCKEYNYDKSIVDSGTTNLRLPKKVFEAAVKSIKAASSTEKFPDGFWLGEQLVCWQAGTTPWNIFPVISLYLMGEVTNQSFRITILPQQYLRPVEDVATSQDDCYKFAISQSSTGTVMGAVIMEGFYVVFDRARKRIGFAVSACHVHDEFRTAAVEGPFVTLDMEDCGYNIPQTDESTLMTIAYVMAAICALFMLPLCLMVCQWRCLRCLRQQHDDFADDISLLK

Regarding `CC(NC(=O)c1cc(C(=O)NC(Cc2ccccc2)C(O)CNCc2ccc3c(c2)OCO3)cc(N(C)S(C)(=O)=O)c1)c1ccccc1` (centres unmarked) [N1-(4-(benzo[d][1,3]dioxol-5-ylmethylamino)-3-hydroxy-1-phenylbutan-2-yl)-5-(N-methylmethylsulfonamido)-N3-(1-phenylethyl)isophthalamide], on memapsin 2, the Ki is less than 300 nM. Moreover, in test [1] (setting [2]), the IC50 was less than 1000 nM.
In the same order, the values of `COc1ccccc1CNCC(O)C(Cc1ccccc1)NC(=O)c1cccc(C(=O)N(C)Cc2nc(C)cs2)c1` (centres unmarked) [N1-(3-hydroxy-4-(2-methoxybenzylamino)-1-phenylbutan-2-yl)-N3-methyl-N3-((4-methylthiazol-2-yl)methyl)isophthalamide] are greater than 501 nM and 1000 to 5000 nM.
The like results for `COc1cccc(CNCC(O)C(Cc2cscn2)NC(=O)c2cc(C(=O)NC(C)c3ccccc3)cc(N(C)S(C)(=O)=O)c2)c1` (centres unmarked) [N1-(3-hydroxy-4-(3-methoxybenzylamino)-1-(thiazol-4-yl)butan-2-yl)-5-(N-methylmethylsulfonamido)-N3-(1-phenylethyl)isophthalamide] were, in that order, less than 300 nM and less than 1000 nM.
In the same order, the values of `Cc1csc(CN(C)C(=O)c2cccc(C(=O)NC(Cc3ccccc3)C(O)CNCc3cccc(OC(F)(F)F)c3)c2)n1` (centres unmarked) [N1-(3-hydroxy-1-phenyl-4-(3-(trifluoromethoxy)benzylamino)butan-2-yl)-N3-methyl-N3-((4-methylthiazol-2-yl)methyl)isophthalamide] are less than 300 nM and less than 1000 nM.
For `COc1ccc(CNCC(O)C(Cc2ccccc2)NC(=O)c2cccc(C(=O)N(C)Cc3nc(C)cs3)c2)cc1` (centres unmarked) [N1-(3-hydroxy-4-(4-methoxybenzylamino)-1-phenylbutan-2-yl)-N3-methyl-N3-((4-methylthiazol-2-yl)methyl)isophthalamide], at memapsin 2, the Ki was greater than 501 nM. In test [1] (setting [2]), the IC50 was in the range of 1000 to 5000 nM.
The like results for `CCN(Cc1nc(C)cs1)C(=O)c1cccc(C(=O)NC(Cc2ccccc2)C(O)CNCc2cccc(OC)c2)c1` (centres unmarked) [N1-ethyl-N3-(3-hydroxy-4-(3-methoxybenzylamino)-1-phenylbutan-2-yl)-N1-((4-methylthiazol-2-yl)methyl)isophthalamide] were, in that order, less than 300 nM and less than 1000 nM.
For the molecule `CC(NC(=O)c1cc(C(=O)NC(Cc2ccccc2)C(O)CNCc2c[nH]cn2)cc(N(C)S(C)(=O)=O)c1)c1ccccc1` (centres unmarked) [N1-(4-((1H-imidazol-4-yl)methylamino)-3-hydroxy-1-phenylbutan-2-yl)-5-(N-methylmethylsulfonamido)-N3-(1-phenylethyl)isophthalamide], on memapsin 2, the Ki fell in the range of 301 to 500 nM. Besides, the IC50 in test [1] (setting [2]) lay in the range of 1000 to 5000 nM.
Take `CCc1csc(CN(C)C(=O)c2cccc(C(=O)NC(Cc3ccccc3)C(O)CNCc3cccc(OC)c3)c2)n1` (centres unmarked) [N1-((4-ethylthiazol-2-yl)methyl)-N3-(3-hydroxy-4-(3-methoxybenzylamino)-1-phenylbutan-2-yl)-N1-methylisophthalamide]: the Ki at memapsin 2 was less than 300 nM. In test [1] (setting [2]), the IC50 was less than 1000 nM.
The like results for `COc1cccc(CNCC(O)C(Cc2ccccc2)NC(=O)c2cc(CS(C)(=O)=O)cc(C(=O)NC(C)c3ccccc3)c2)c1` (centres unmarked) [N1-(3-hydroxy-4-(3-methoxybenzylamino)-1-phenylbutan-2-yl)-5-(methylsulfonylmethyl)-N3-(1-phenylethyl)isophthalamide] were, in that order, less than 300 nM and less than 1000 nM.
Turning to `COc1ccc(CCNCC(O)C(Cc2ccccc2)NC(=O)c2cc(C(=O)NC(C)c3ccccc3)cc(N(C)S(C)(=O)=O)c2)cc1O` (centres unmarked) [N1-(3-hydroxy-4-(3-hydroxy-4-methoxyphenethylamino)-1-phenylbutan-2-yl)-5-(N-methylmethylsulfonamido)-N3-(1-phenylethyl)isophthalamide], at memapsin 2, the Ki is less than 300 nM. Besides, in test [1] (setting [2]), the IC50 lay within 1000 to 5000 nM.
On to `COc1cccc(CNCC(O)C(Cc2ccccc2)NC(=O)c2cccc(C(=O)N(Cc3nc(C)cs3)C(C)C)c2)c1` (centres unmarked) [N1-(3-hydroxy-4-(3-methoxybenzylamino)-1-phenylbutan-2-yl)-N3-isopropyl-N3-((4-methylthiazol-2-yl)methyl)isophthalamide], for which the Ki on memapsin 2 is less than 300 nM. In addition, the IC50 in test [1] (setting [2]) is less than 1000 nM.
The like results for `COc1ccc(S(=O)(=O)NCC(O)C(Cc2ccccc2)NC(=O)c2cc(C(=O)NC(C)c3ccccc3)cc(N(C)S(C)(=O)=O)c2)cc1` (centres unmarked) [N1-(3-hydroxy-4-(4-methoxyphenylsulfonamido)-1-phenylbutan-2-yl)-5-(N-methylmethylsulfonamido)-N3-(1-phenylethyl)isophthalamide] were, in that order, greater than 501 nM and 1000 to 5000 nM.
In the same order, the values of `Cc1csc(C(C)NCC(O)C(Cc2ccccc2)NC(=O)c2cc(C(=O)NC(C)c3ccccc3)cc(N(C)S(C)(=O)=O)c2)n1` (centres unmarked) [N1-(3-hydroxy-4-(1-(4-methylthiazol-2-yl)ethylamino)-1-phenylbutan-2-yl)-5-(N-methylmethylsulfonamido)-N3-(1-phenylethyl)isophthalamide] are less than 300 nM and less than 1000 nM.
In the same order, the values of `C#Cc1cccc(CNCC(O)C(Cc2ccccc2)NC(=O)c2cc(C(=O)NC(C)c3ccccc3)cc(N(C)S(C)(=O)=O)c2)c1` (centres unmarked) [N1-(4-(3-ethynylbenzylamino)-3-hydroxy-1-phenylbutan-2-yl)-5-(N-methylmethylsulfonamido)-N3-(1-phenylethyl)isophthalamide] are less than 300 nM and less than 1000 nM.
For the molecule `COc1cccc(CNCC(O)C(Cc2ccccc2OC)NC(=O)c2cc(C(=O)NC(C)c3ccccc3)cc(N(C)S(C)(=O)=O)c2)c1` (centres unmarked) [N1-(3-hydroxy-4-(3-methoxybenzylamino)-1-(2-methoxyphenyl)butan-2-yl)-5-(N-methylmethylsulfonamido)-N3-(1-phenylethyl)isophthalamide], at memapsin 2, the Ki lay within 301 to 500 nM. Further, the IC50 in test [1] (setting [2]) is greater than 5000 nM.
With `COC1CCCC(CNCC(O)C(Cc2ccccc2)NC(=O)c2cc(C(=O)NC(C)c3ccccc3)cc(N(C)S(C)(=O)=O)c2)C1` (centres unmarked) [N1-(3-hydroxy-4-((3-methoxycyclohexyl)methylamino)-1-phenylbutan-2-yl)-5-(N-methylmethylsulfonamido)-N3-(1-phenylethyl)isophthalamide], on memapsin 2, the Ki is greater than 501 nM. The IC50 in test [1] (setting [2]) fell in the range of 1000 to 5000 nM.
Consider `COc1cccc(CNCC(O)C(Cc2ccccc2)NC(=O)c2cccc(C(=O)N(C)Cc3nc(C)oc3C)c2)c1` (centres unmarked) [N1-((2,5-dimethyloxazol-4-yl)methyl)-N3-(3-hydroxy-4-(3-methoxybenzylamino)-1-phenylbutan-2-yl)-N1-methylisophthalamide], for which the Ki at memapsin 2 was less than 300 nM. In test [1] (setting [2]), the IC50 is less than 1000 nM.
Regarding `COc1cccc(CN2CCC(CNCC(O)C(Cc3ccccc3)NC(=O)c3cc(C(=O)NC(C)c4ccccc4)cc(N(C)S(C)(=O)=O)c3)CC2)c1` (centres unmarked) [N1-(3-hydroxy-4-((1-(3-methoxybenzyl)piperidin-4-yl)methylamino)-1-phenylbutan-2-yl)-5-(N-methylmethylsulfonamido)-N3-(1-phenylethyl)isophthalamide], the Ki on memapsin 2 is greater than 501 nM. Further, the IC50 in test [1] (setting [2]) is greater than 5000 nM.
Take `Cc1csc(CN(C)C(=O)c2cccc(C(=O)NC(Cc3ccccc3)C(O)CNCc3cncc(CC(C)C)c3)c2)n1` (centres unmarked) [N1-(3-hydroxy-4-((5-isobutylpyridin-3-yl)methylamino)-1-phenylbutan-2-yl)-N3-methyl-N3-((4-methylthiazol-2-yl)methyl)isophthalamide]: the Ki on memapsin 2 was less than 300 nM. Besides, in test [1] (setting [2]), the IC50 was less than 1000 nM.
For the molecule `CC(NC(=O)c1cc(C(=O)NC(Cc2ccccc2)C(O)CNCc2cccn2COCC[Si](C)(C)C)cc(N(C)S(C)(=O)=O)c1)c1ccccc1` (centres unmarked) [N1-(3-hydroxy-1-phenyl-4-((1-((2-(trimethylsilyl)ethoxy)methyl)-1H-pyrrol-2-yl)methylamino)butan-2-yl)-5-(N-methylmethylsulfonamido)-N3-(1-phenylethyl)isophthalamide], the Ki at memapsin 2 was 301 to 500 nM. For the same molecule, the IC50 in test [1] (read-out: Cell) is less than 1000 nM.
Take `CCOc1cncc(CNCC(O)C(Cc2ccccc2)NC(=O)c2cccc(C(=O)N(C)Cc3nc(C)cs3)c2)c1` (centres unmarked) [N1-(4-((5-ethoxypyridin-3-yl)methylamino)-3-hydroxy-1-phenylbutan-2-yl)-N3-methyl-N3-((4-methylthiazol-2-yl)methyl)isophthalamide]: the Ki at memapsin 2 is less than 300 nM. The IC50 in test [1] (setting [2]) was less than 1000 nM.
In the same order, the values of `COc1ccccc1CCNCC(O)C(Cc1ccccc1)NC(=O)c1cccc(C(=O)N(C)Cc2nc(C)cs2)c1` (centres unmarked) [N1-(3-hydroxy-4-(2-methoxyphenethylamino)-1-phenylbutan-2-yl)-N3-methyl-N3-((4-methylthiazol-2-yl)methyl)isophthalamide] are greater than 501 nM and 1000 to 5000 nM.
The like results for `Cc1csc(CN(C)C(=O)c2cccc(C(=O)NC(Cc3ccccc3)C(O)CNCc3cccc(OC(F)F)c3)c2)n1` (centres unmarked) [N1-(4-(3-(difluoromethoxy)benzylamino)-3-hydroxy-1-phenylbutan-2-yl)-N3-methyl-N3-((4-methylthiazol-2-yl)methyl)isophthalamide] were, in that order, less than 300 nM and less than 1000 nM.
In the same order, the values of `COc1cccc(CNCC(O)C(Cc2cc(F)cc(F)c2)NC(=O)c2cccc(C(=O)N(C)Cc3nc(C)cs3)c2)c1` (centres unmarked) [N1-(1-(3,5-difluorophenyl)-3-hydroxy-4-(3-methoxybenzylamino)butan-2-yl)-N3-methyl-N3-((4-methylthiazol-2-yl)methyl)isophthalamide] are less than 300 nM and less than 1000 nM.
As to `Cc1csc(CN(C)C(=O)c2cccc(C(=O)NC(Cc3ccccc3)C(O)CNCc3cncc(OCC(C)C)c3)c2)n1` (centres unmarked) [N1-(3-hydroxy-4-((5-isobutoxypyridin-3-yl)methylamino)-1-phenylbutan-2-yl)-N3-methyl-N3-((4-methylthiazol-2-yl)methyl)isophthalamide], at memapsin 2, the Ki is less than 300 nM. For the same molecule, the IC50 in test [1] (setting [2]) was less than 1000 nM.
